Patent publication US8178551B2 (Green Cross Corporation, priority 2007, dated 2012)
Counter-ions that a name gives are not always drawn.

Tested on: MDCK monolayers
Test: not given
Conditions: MDCK Papp; cited from earlier work

| Compound | Permeability values for known drugs |
| --- | --- |
| CC(=O)Nc1ccc(O)cc1 [acetaminophen] | 35 ×10⁻⁶ cm/s |
| CC(C(=O)O)c1cccc(C(=O)c2ccccc2)c1 (stereo not shown) [ketoprofen] | 20 ×10⁻⁶ cm/s |

Tested on: MPTP-induced Parkinson's disease animal model
Test: not given
Conditions: daily injections, literature; cited from earlier work

| Compound | neuroprotective property in MPTP models (DA neurons in substantia nigra pars compacta, striatal DA levels) |
| --- | --- |
| Oc1ccc2c(c1)[C@@]13CCCC[C@H]1[C@@H](C2)NCC3 [HM, (+)-3-hydroxymorphinan] | dopamine (DA) neurons in substantia nigra pars compacta have been protected and DA levels in striatum has been restored |

Tested on: not listed separately
Test: Drug transport assay with MDCK monolayers (apparent permeability, Papp)
Format: in vitro ADME
Conditions: dog, MDCK, apical to basolateral, 37° C.
Protocol: (§1) Experiment 1. Permeability Measurement by Performing a Drug Transport Assay with MDCK Monolayers
(§2) (+)-3-HM was dissolved in DMSO at 10 mM and stored at 4° C. MDCK cells were obtained from the ATCC (American Type Culture Collection, CCL-34). MDCK cells were maintained in DMEM (Dulbecco's MEM with high glucose) containing 1×NEAA (Non-essential amino acids), 10 mM HEPES, 100 units penicillin, 0.1 mg/ml streptomycin and 8% FBS. The cells were cultivated in T-75 flasks in a cell culture incubator at 37° C. MDCK cells were passaged twice per week. When the cells were 90% confluence, the cells were plated at 1×10^5 cells/well in transwell. The cells were fed with fresh medium every other day. The Cells were grown to confluence on the transwell for 5 days. When the cells have reached confluence and are differentiated, they are ready to be used for transport studies. The TEER (Transepithelial electrical resistance) of each well was measured by Millicell-ERS system ohm meter. The electrode was immersed in 70% ethanol and PBS for 15 minutes. […] MDCK monolayers with TEER values >400Ω were used. After the each well was washed by using sterile HBSS (hank's buffered solution) and (+)-3-HM was diluted 100-fold in HBSS, the apical wells were filled with 200 ul of the test compounds. The basolateral wells were filled with 1 ml of HBSS buffer. Only 0.1% DMSO treated wells prepared to adjust for analysis. The cells were incubated at 37° C. for 1 hour. At the end of the transport period, the result samples were removed from the apical (150 ul) and basolateral (900 ul) wells. The representative compounds of Examples were conducted in same conditions.
(§3) Experiment 2. The HPLC Analysis and the Calculation of Papp
(§4) HPLC analyses were performed using a WATERS HPLC system. A ZORBAX Eclipse XDB-C18 (4.6×250 mm, 5 μm particle size) was used. The optimal operating conditions are as followed; Mobile phase A is composed of distilled water-acetonitrile (ACN) (9:1, v/v) with 0.1% trifluoroacetic acid (TFA), and mobile phase B is 90% acetonitrile with 0.1% TFA. All buffers were used after the 0.45 μm filtration.
(§5) The UV detection was performed at 280 nm or the fluorescence detection was performed at Excitation in 228 nm and Emission in 330 nm.
(§6) The concentration of A and B buffer was performed by the gradient method and the total analysis time was 38 min. The optimal operating conditions: elution gradient 0-10 min (10-50%), 10-20 min (50-90%), 20-25 min (90%), 25-27 min (90-10%), 27-38 min (10%). After the analysis of HPLC, the percentage of area of (+)-3-HM and the compound of Example 2 were calculated by remained concentration (μg/ml).
(§7) The apparent permeability coefficients (Papp), expressed in nm/sec, were calculated by the following equation: Permeability (Papp)=(Receiver Volume×Receiver Conc.)/(Filter surface area×Reaction Time×donor Conc.)×10^7.

| Compound | Papp A→B at 1 h, 100 µM |
| --- | --- |
| O=C(OCOc1ccc2c(c1)[C@]13CCCC[C@@H]1[C@H](C2)NCC3)OC1CCCCCC1 [Example 27, TFA] | 23.4 ×10⁻⁶ cm/s |
| O=C(OCOc1ccc2c(c1)[C@]13CCCC[C@@H]1[C@H](C2)NCC3)OCC1CCCCC1 [Example 9, (+)-Cyclohexylmethyl(morphinan-3-yloxy)methyl carbonate] | 48.7 ×10⁻⁶ cm/s |
| O=C(OCOc1ccc2c(c1)[C@]13CCCC[C@@H]1[C@H](C2)NCC3)OCC1CCC1 [Example 17, (+)-Cyclobutylmethyl(morphinan-3-yloxy)methyl carbonate TFA] | 22.7 ×10⁻⁶ cm/s |
| O=C(OCOc1ccc2c(c1)[C@]13CCCC[C@@H]1[C@H](C2)NCC3)C1CCCCC1 [Example 56, (+)-(Morphinan-3-yloxy)methyl cyclohexanoate TFA] | 9.43 ×10⁻⁶ cm/s |
| CCC(CC)C(=O)OCOc1ccc2c(c1)[C@]13CCCC[C@@H]1[C@H](C2)NCC3 [Example 54, (+)-(Morphinan-3-yloxy)methyl 2-ethylbutanoate TFA] | 28.9 ×10⁻⁶ cm/s |
| CCC(C)C(=O)OCOc1ccc2c(c1)[C@]13CCCC[C@@H]1[C@H](C2)NCC3 (stereo partly drawn) [Example 66, (+)-(Morphinan-3-yloxy)methyl 2-methylbutanoate TFA] | 16.2 ×10⁻⁶ cm/s |
| Oc1ccc2c(c1)[C@@]13CCCC[C@H]1[C@@H](C2)NCC3 [HM, (+)-3-hydroxymorphinan] | 3.33 ×10⁻⁶ cm/s |
| CC(C)OC(=O)OCOc1ccc2c(c1)[C@]13CCCC[C@@H]1[C@H](C2)NCC3 [Example 2, (+)-Isopropyl(morphinan-3-yloxy)methyl carbonate] | 26.2 ×10⁻⁶ cm/s |
| CCCCC(CC)C(=O)OCOc1ccc2c(c1)[C@]13CCCC[C@@H]1[C@H](C2)NCC3 (stereo partly drawn) [Example 60, (+)-(Morphinan-3-yloxy)methyl 2-ethylhexanoate TFA] | 20.2 ×10⁻⁶ cm/s |
| O=C(OCOc1ccc2c(c1)[C@]13CCCC[C@@H]1[C@H](C2)NCC3)C1CC1 [Example 68, (+)-(Morphinan-3-yloxy)methyl cyclopropanecarboxylate TFA] | 10.1 ×10⁻⁶ cm/s |
| CC(C)(C)C(=O)OCOc1ccc2c(c1)[C@]13CCCC[C@@H]1[C@H](C2)NCC3 [Example 105, (+)-(Morphinan-3-yloxy)methyl pivalate salicylic acid] | 20.3 ×10⁻⁶ cm/s |
| CC(C)COC(=O)OCOc1ccc2c(c1)[C@]13CCCC[C@@H]1[C@H](C2)NCC3 [Example 23, (+)-Isobutyl(morphinan-3-yloxy)methyl carbonate TFA] | 20.3 ×10⁻⁶ cm/s |
| O=C(OCOc1ccc2c(c1)[C@]13CCCC[C@@H]1[C@H](C2)NCC3)OC1CCCC1 [Example 6, (+)-Cyclopentyl(morphinan-3-yloxy)methyl carbonate] | 20.6 ×10⁻⁶ cm/s |
| CCC(C(=O)OCOc1ccc2c(c1)[C@]13CCCC[C@@H]1[C@H](C2)NCC3)c1ccccc1 (stereo partly drawn) [Example 72, (+)-(Morphinan-3-yloxy)methyl 2-phenylbutanoate TFA] | 13.1 ×10⁻⁶ cm/s |
| CC(C)C(=O)OCOc1ccc2c(c1)[C@]13CCCC[C@@H]1[C@H](C2)NCC3 [Example 44, (+)-(Morphinan-3-yloxy)methyl isobutyrate] | 21.2 ×10⁻⁶ cm/s |
| CC(C)CC(=O)OCOc1ccc2c(c1)[C@]13CCCC[C@@H]1[C@H](C2)NCC3 [Example 70, (+)-(Morphinan-3-yloxy)methyl 3-methylbutanoate TFA] | 16.6 ×10⁻⁶ cm/s |
| CC(Cc1ccccc1)OC(=O)OCOc1ccc2c(c1)[C@]13CCCC[C@@H]1[C@H](C2)NCC3 (stereo partly drawn) [Example 31, (+)-(Morphinan-3-yloxy)methyl 1-phenylpropan-2-yl carbonate TFA] | 22.3 ×10⁻⁶ cm/s |
| O=C(OCOc1ccc2c(c1)[C@]13CCCC[C@@H]1[C@H](C2)NCC3)OCC1CCCC1 [Example 15, (+)-Cyclopentylmethyl(morphinan-3-yloxy)methyl carbonate TFA] | 33.7 ×10⁻⁶ cm/s |
| O=C(OCOc1ccc2c(c1)[C@]13CCCC[C@@H]1[C@H](C2)NCC3)OCC1CC1 [Example 4, (+)-Cyclopropylmethyl(morphinan-3-yloxy)methyl carbonate] | 15.3 ×10⁻⁶ cm/s |
| O=C(OCOc1ccc2c(c1)[C@]13CCCC[C@@H]1[C@H](C2)NCC3)OC1CCCCC1 [Example 8, (+)-Cyclohexyl(morphinan-3-yloxy)methyl carbonate] | 19.7 ×10⁻⁶ cm/s |
| CCCOC(=O)OCOc1ccc2c(c1)[C@]13CCCC[C@@H]1[C@H](C2)NCC3 [Example 3, (+)-(Morphinan-3-yloxy)methyl propyl carbonate] | 21.9 ×10⁻⁶ cm/s |
| O=C(OCOc1ccc2c(c1)[C@]13CCCC[C@@H]1[C@H](C2)NCC3)OC1CCC1 [Example 37, (+)-Cyclobutyl(morphinan-3-yloxy)methyl carbonate TFA] | 13.6 ×10⁻⁶ cm/s |
| O=C(OCOc1ccc2c(c1)[C@]13CCCC[C@@H]1[C@H](C2)NCC3)C1CCCC1 [Example 58, (+)-(Morphinan-3-yloxy)methyl cyclopentanoate TFA] | 6.05 ×10⁻⁶ cm/s |
| CCC(C)OC(=O)OCOc1ccc2c(c1)[C@]13CCCC[C@@H]1[C@H](C2)NCC3 (single isomer, unassigned; (+)) [Example 25, (+)-sec-Butyl(morphinan-3-yloxy)methyl carbonate TFA] | 20.3 ×10⁻⁶ cm/s |
| CCCC(C)OC(=O)OCOc1ccc2c(c1)[C@]13CCCC[C@@H]1[C@H](C2)NCC3 (stereo partly drawn) [Example 41, (+)-(Morphinan-3-yloxy)methyl pentan-2-yl carbonate TFA] | 23.1 ×10⁻⁶ cm/s |

Tested on: MDCK monolayers
Test: as above
Format: in vitro ADME
Conditions: apical to basolateral, 37° C., 1 hour
Protocol: as §1, §2, §3, §4, §5, §6, §7

| Compound | Papp |
| --- | --- |
| CC(C)OC(=O)OCOc1ccc2c(c1)[C@]13CCCC[C@@H]1[C@H](C2)NCC3 [Example 80, (+)-Isopropyl(morphinan-3-yloxy)methyl carbonate L-(+)-tartaric acid] | 18.57 ×10⁻⁶ cm/s |

Tested on: not given
Test: not given
Conditions: known drugs; cited from earlier work

| Compound | human absorption |
| --- | --- |
| CC(=O)Nc1ccc(O)cc1 [acetaminophen] | 94% |
| C[C@@H]1C[C@H]2[C@@H]3CCC4=CC(=O)C=C[C@]4(C)[C@@]3(F)[C@@H](O)C[C@]2(C)[C@@]1(O)C(=O)CO [dexamethasone] | 98% |
